The experiment concerns Renal Cell Carcinoma patients. Nature of the experiment: Clinical efficacy of Bevacizumab treatment by body imaging (size reduction of the tumor). Format: in vivo, human. As for the experimental part:
A study is performed to generate kinase inhibition profiles from tumor tissues derived from Renal Cell Carcinoma patients treated with the drug Bevacizumab. The tissue is derived from tumor resection performed before the Bevacizumab treatment is started. Bevacizumab is an antibody that blocks the triggering of the Vascular Endothelial Growth Factor Receptors (VEGFR), and thereby blocks the VEGFR signal transduction pathways.
The activity of the targeted VEGFR or VEGFR pathway is assessed in lysates prepared from Bevacizumab responding and non-responding patients. Clinical efficacy is determined using body imaging, thereby monitoring the size reduction of the tumor. In this assessment the lysates are profiled for activities of kinases on a peptide microarray comprising peptide substrates for protein tyrosine kinases. […] It is shown that peptides that are inhibited by these VEGFR kinase inhibitors, thus reporting VEGFR activity, are found in the microarray analyses of the Bevacizumab responding patients, and are not inhibited in the analyses of the patients not responding to Bevacizumab (Table 1). […] As these inhibition profiles are generated from tumor tissue derived from the patients before the treatment is started, these inhibition profiles are predictive for the clinical response of these patients. In patients with an active VEGFR pathway this drug is clinically active. In patients with no active VEGFR pathway no clinical effects are provided.
A study is performed to generate kinase inhibition profiles from tumor tissues derived from Renal Cell Carcinoma patients treated with the drug Bevacizumab. The tissue is derived from tumor resection performed before Bevacizumab treatment is started. Bevacizumab is an antibody that blocks the triggering of the Vascular Endothelial Growth Factor Receptors (VEGFR), and thereby it blocks the VEGFR signal transduction pathways. In patients with an active VEGFR pathway this drug is expected to be clinically active.
The activity of the alternative pathway is assessed in lysates prepared from Bevacizumab responding and non-responding patients. Clinical efficacy is determined using body imaging, thereby monitoring the size reduction of the tumor. In this assessment the lysates are profiled for activities of kinases on a peptide microarray comprising peptide substrates for protein tyrosine kinases. These kinase activity profiling tests are performed both in the presence and absence of an IGFR kinase inhibitor. […] It is shown that peptides that are inhibited by this IGFR kinase inhibitor, thus reporting IGFR activity, are found in the analyses of the Bevacizumab responding patients, and are not inhibited in the analyses of the patients not responding to Bevacizumab (Table 2). […] As these inhibition profiles are generated from tumor tissue derived from the patients before the treatment is started, these inhibition profiles are predictive for clinical response. Therefore, in patients with no active VEGFR pathway or with an alternative pathway allowing the tumor growth independent of the VEGFR signalling pathway, no clinical effect is obtained.

For the substance “Bevacizumab: antibody that blocks the triggering of the Vascular Endothelial Growth Factor Receptors (VEGFR); binds VEGF”, the Clinical response result is, setting by setting: (Example 1, Patient 1, Renal Cell Carcinoma) “Responder”; (Example 1, Patient 2, Renal Cell Carcinoma) “Responder”; (Example 1, Patient 3, Renal Cell Carcinoma) “Non Responder”; (Example 1, Patient 4, Renal Cell Carcinoma) “Non Responder”; (Example 2, Patient 1, Renal Cell Carcinoma) “Responder”; (Example 2, Patient 2, Renal Cell Carcinoma) “Responder”. The Clinical response entry (Example 2, Patient 3, Renal Cell Carcinoma) was “Non Responder” and the Clinical response entry (Example 2, Patient 4, Renal Cell Carcinoma) is “Non Responder”.

These data come from US20120021939A1, “METHOD FOR PROFILING DRUG COMPOUNDS USING PROTEIN KINASE INHIBITORS” (priority 2009, published 2012).
